Read-outs that look alike come from different tables or passages of the source.
Columns and labels:
SARS-CoV-2 nsp3-mac1 [1] = molecular target: T1, SARS-CoV-2 nsp3-mac1 (Severe acute respiratory syndrome coronavirus 2, UniProt P0DTD1); test: biochemical; assay type: biochemical; conditions: SARS-CoV-2 nsp3 macrodomain TR-FRET single point, concentration 50.0 uM
SARS-CoV-2 nsp3-mac1 [2] = molecular target: T1, SARS-CoV-2 nsp3-mac1; test: biochemical; parameters: SARS-CoV-2 nsp3 macrodomain TR-FRET single point, per cent inhibition, n=2

| SMILES | perc_inhibition_mean (SARS-CoV-2 nsp3-mac1 [1]) [%] | also measured |
| --- | --- | --- |
| c1ccc([C@@H](CNc2ncnc3n[nH]cc23)N2CCOCC2)cc1 [ASAP-0000001] | -0.781 | inhibition at 50 µM (SARS-CoV-2 nsp3-mac1 [2]; read-out: perc_inhibition_mean, batch_name=ASAP-0000001-001): -0.781% |
| COc1cccc(Cl)c1CNc1ncnc2[nH]ncc12 [ASAP-0000002] | -1.826 | inhibition at 50 µM (SARS-CoV-2 nsp3-mac1 [2]; read-out: perc_inhibition_mean, batch_name=ASAP-0000002-001): -1.83% |
| c1ccc2sc(CCNc3ncnc4nc[nH]c34)nc2c1 [ASAP-0000003] | -4.211 | inhibition at 50 µM (SARS-CoV-2 nsp3-mac1 [2]; read-out: perc_inhibition_mean, batch_name=ASAP-0000003-001): -4.21% |
| CC(C)(CCNc1ncnc2[nH]ccc12)S(C)(=O)=O [ASAP-0000004] | 0.75 | inhibition at 50 µM (SARS-CoV-2 nsp3-mac1 [2]; read-out: perc_inhibition_mean, batch_name=ASAP-0000004-001): 0.75% |
| C=CCn1c(Sc2ncnc3[nH]ccc23)nc2sccc2c1=O [ASAP-0000005] | 6.305 | inhibition at 50 µM (SARS-CoV-2 nsp3-mac1 [2]; read-out: perc_inhibition_mean, batch_name=ASAP-0000005-001): 6.3% |
| c1nc(N2CC[C@@H](n3cncn3)C2)c2cc[nH]c2n1 [ASAP-0000006] | -1.543 | inhibition at 50 µM (SARS-CoV-2 nsp3-mac1 [2]; read-out: perc_inhibition_mean, batch_name=ASAP-0000006-001): -1.54% |
| c1ccc(CN2CCO[C@@H](CNc3ncnc4nc[nH]c34)C2)cc1 [ASAP-0000007] | -2.441 | inhibition at 50 µM (SARS-CoV-2 nsp3-mac1 [2]; read-out: perc_inhibition_mean, batch_name=ASAP-0000007-001): -2.44% |
| CC(C)NC(=O)[C@@H]1CCCN(c2ncnc3[nH]ccc23)C1 [ASAP-0000008] | 1.78 | inhibition at 50 µM (SARS-CoV-2 nsp3-mac1 [2]; read-out: perc_inhibition_mean, batch_name=ASAP-0000008-001): 1.78% |
| c1ccc(OC[C@@H]2CCCN2c2ncnc3[nH]ccc23)cc1 [ASAP-0000009] | -0.466 | inhibition at 50 µM (SARS-CoV-2 nsp3-mac1 [2]; read-out: perc_inhibition_mean, batch_name=ASAP-0000009-001): -0.466% |
| O=C(Nc1cnc2[nH]ncc2c1)c1noc2c1CCCC2 [ASAP-0000010] | -1.398 | inhibition at 50 µM (SARS-CoV-2 nsp3-mac1 [2]; read-out: perc_inhibition_mean, batch_name=ASAP-0000010-001): -1.4% |
| O=S(=O)(Nc1cnc2[nH]ncc2c1)c1cnn(C2CCCC2)c1 [ASAP-0000011] | 0.415 | inhibition at 50 µM (SARS-CoV-2 nsp3-mac1 [2]; read-out: perc_inhibition_mean, batch_name=ASAP-0000011-001): 0.415% |
| O=C(Nc1cnc2[nH]ncc2c1)c1ccccc1CN1CCOCC1 [ASAP-0000012] | -3.239 | inhibition at 50 µM (SARS-CoV-2 nsp3-mac1 [2]; read-out: perc_inhibition_mean, batch_name=ASAP-0000012-001): -3.24% |
| Cc1cnc(CCNc2ncnc3[nH]ncc23)c(C)c1 [ASAP-0000013] | 4.342 | inhibition at 50 µM (SARS-CoV-2 nsp3-mac1 [2]; read-out: perc_inhibition_mean, batch_name=ASAP-0000013-001): 4.34% |
| Cc1cccc(OCCNc2ncnc3nc[nH]c23)c1 [ASAP-0000014] | 3.91 | inhibition at 50 µM (SARS-CoV-2 nsp3-mac1 [2]; read-out: perc_inhibition_mean, batch_name=ASAP-0000014-001): 3.91% |
| Fc1ccc(OC(F)F)c(CNc2cnc3[nH]ncc3c2)c1 [ASAP-0000015] | -6.672 | inhibition at 50 µM (SARS-CoV-2 nsp3-mac1 [2]; read-out: perc_inhibition_mean, batch_name=ASAP-0000015-002): -6.67% |
| O=C(Nc1cnc2[nH]ncc2c1)C1CCN(c2ccc3nncn3n2)CC1 [ASAP-0000016] | 16.966 | inhibition at 50 µM (SARS-CoV-2 nsp3-mac1 [2]; read-out: perc_inhibition_mean, batch_name=ASAP-0000016-001): 17% |
| NS(=O)(=O)N1CCCN(c2ncnc3[nH]c(I)cc23)CC1 [ASAP-0000017] | 2.291 | inhibition at 50 µM (SARS-CoV-2 nsp3-mac1 [2]; read-out: perc_inhibition_mean, batch_name=ASAP-0000017-001): 2.29% |
| Cc1ccc(S(=O)(=O)Nc2ccccc2F)cc1C(=O)Nc1cnc2[nH]ncc2c1 [ASAP-0000018] | 0.764 | inhibition at 50 µM (SARS-CoV-2 nsp3-mac1 [2]; read-out: perc_inhibition_mean, batch_name=ASAP-0000018-001): 0.764% |
| CNC(=O)c1cccc(CNC(=O)c2ncnc3[nH]ccc23)c1 [ASAP-0000019] | -5.906 | inhibition at 50 µM (SARS-CoV-2 nsp3-mac1 [2]; read-out: perc_inhibition_mean, batch_name=ASAP-0000019-001): -5.91% |
| Cc1[nH]c2ncnc(NC(=O)C3CCC(F)(F)CC3)c2c1C [ASAP-0000020] | 2.148 | inhibition at 50 µM (SARS-CoV-2 nsp3-mac1 [2]; read-out: perc_inhibition_mean, batch_name=ASAP-0000020-001): 2.15% |
| Fc1ccc(Oc2cc(CNc3ncnc4nc[nH]c34)ccn2)cc1 [ASAP-0000021] | 2.011 | inhibition at 50 µM (SARS-CoV-2 nsp3-mac1 [2]; read-out: perc_inhibition_mean, batch_name=ASAP-0000021-001): 2.01% |
| c1cc(CNc2cnc3[nH]ncc3c2)cc(-c2ccncc2)c1 [ASAP-0000022] | -17.179 | inhibition at 50 µM (SARS-CoV-2 nsp3-mac1 [2]; read-out: perc_inhibition_mean, batch_name=ASAP-0000022-001): -17.2% |
| O=C(Nc1cnc2[nH]ncc2c1)c1ccc(Oc2cccc(Br)c2)nc1 [ASAP-0000023] | -0.183 | inhibition at 50 µM (SARS-CoV-2 nsp3-mac1 [2]; read-out: perc_inhibition_mean, batch_name=ASAP-0000023-001): -0.183% |
| C#Cc1cccc(NC(=O)CN(C)c2ncnc3[nH]ccc23)c1 [ASAP-0000024] | 4.398 | inhibition at 50 µM (SARS-CoV-2 nsp3-mac1 [2]; read-out: perc_inhibition_mean, batch_name=ASAP-0000024-001): 4.4% |
| CN(CCOc1ccccc1)c1ncnc2[nH]ccc12 [ASAP-0000026] | -2.258 | inhibition at 50 µM (SARS-CoV-2 nsp3-mac1 [2]; read-out: perc_inhibition_mean, batch_name=ASAP-0000026-001): -2.26% |

| SMILES | perc_inhibition_mean (SARS-CoV-2 nsp3-mac1 [1]) [%] | also measured |
| --- | --- | --- |
| Cc1[nH]c2ncnc(NC(=O)c3ncn(-c4ccccc4)n3)c2c1C [ASAP-0000027] | 7.104 | inhibition at 50 µM (SARS-CoV-2 nsp3-mac1 [2]; read-out: perc_inhibition_mean, batch_name=ASAP-0000027-001): 7.1% |
| COc1cccc2cc(CNc3cnc4[nH]ncc4c3)oc12 [ASAP-0000028] | -4.293 | inhibition at 50 µM (SARS-CoV-2 nsp3-mac1 [2]; read-out: perc_inhibition_mean, batch_name=ASAP-0000028-001): -4.29% |
| COc1cc(CNc2cnc3[nH]ncc3c2)ccc1Cl [ASAP-0000029] | -2.794 | inhibition at 50 µM (SARS-CoV-2 nsp3-mac1 [2]; read-out: perc_inhibition_mean, batch_name=ASAP-0000029-001): -2.79% |
| FC(F)(F)c1ccccc1[C@@H]1CN(c2ncnc3[nH]ccc23)CCO1 [ASAP-0000030] | -5.311 | inhibition at 50 µM (SARS-CoV-2 nsp3-mac1 [2]; read-out: perc_inhibition_mean, batch_name=ASAP-0000030-001): -5.31% |
| O=C(Cc1ccc(F)cc1)Nc1ccc2[nH]ncc2c1 [ASAP-0000032] | 1.139 | inhibition at 50 µM (SARS-CoV-2 nsp3-mac1 [2]; read-out: perc_inhibition_mean, batch_name=ASAP-0000032-001): 1.14% |
| CC(C)(c1noc(-c2ncnc3[nH]ccc23)n1)S(C)(=O)=O [ASAP-0000033] | -0.756 | inhibition at 50 µM (SARS-CoV-2 nsp3-mac1 [2]; read-out: perc_inhibition_mean, batch_name=ASAP-0000033-001): -0.756% |
| O=C(CNc1ncnc2[nH]ccc12)N1CCc2ccccc21 [ASAP-0000034] | 1.193 | inhibition at 50 µM (SARS-CoV-2 nsp3-mac1 [2]; read-out: perc_inhibition_mean, batch_name=ASAP-0000034-001): 1.19% |
| CN1CCOc2cccc(NC(=O)Nc3cnc4[nH]ncc4c3)c21 [ASAP-0000035] | -6.537 | inhibition at 50 µM (SARS-CoV-2 nsp3-mac1 [2]; read-out: perc_inhibition_mean, batch_name=ASAP-0000035-001): -6.54% |
| c1ccc2sc(CNc3ncnc4[nH]ccc34)nc2c1 [ASAP-0000036] | -0.671 | inhibition at 50 µM (SARS-CoV-2 nsp3-mac1 [2]; read-out: perc_inhibition_mean, batch_name=ASAP-0000036-001): -0.671% |
| O=C1CN(c2ccc(Nc3ncnc4[nH]ccc34)cn2)CCN1 [ASAP-0000037] | -16.793 | inhibition at 50 µM (SARS-CoV-2 nsp3-mac1 [2]; read-out: perc_inhibition_mean, batch_name=ASAP-0000037-001): -16.8% |
| Cc1cccc2oc(CCNc3ncnc4[nH]ccc34)nc12 [ASAP-0000038] | -3.259 | inhibition at 50 µM (SARS-CoV-2 nsp3-mac1 [2]; read-out: perc_inhibition_mean, batch_name=ASAP-0000038-001): -3.26% |
| O=C(OCC(Br)=C1CCOCC1)c1ncnc2[nH]ccc12 [ASAP-0000039] | -5.359 | inhibition at 50 µM (SARS-CoV-2 nsp3-mac1 [2]; read-out: perc_inhibition_mean, batch_name=ASAP-0000039-001): -5.36% |
| CS(=O)(=O)N1CC[C@@H](COC(=O)c2ncnc3[nH]ccc23)C1 [ASAP-0000040] | 0.187 | inhibition at 50 µM (SARS-CoV-2 nsp3-mac1 [2]; read-out: perc_inhibition_mean, batch_name=ASAP-0000040-001): 0.187% |
| Cc1nc(C)c(CC(=O)Nc2cnc3[nH]ncc3c2)c(=O)[nH]1 [ASAP-0000041] | 4.825 | inhibition at 50 µM (SARS-CoV-2 nsp3-mac1 [2]; read-out: perc_inhibition_mean, batch_name=ASAP-0000041-001): 4.83% |
| O=C(Cc1n[nH]c2c1CCCC2)Nc1cnc2[nH]ncc2c1 [ASAP-0000042] | -1.262 | inhibition at 50 µM (SARS-CoV-2 nsp3-mac1 [2]; read-out: perc_inhibition_mean, batch_name=ASAP-0000042-001): -1.26% |
| Cc1noc([C@@H]2CCCN(c3ncnc4[nH]ccc34)C2)n1 [ASAP-0000043] | 1.916 | inhibition at 50 µM (SARS-CoV-2 nsp3-mac1 [2]; read-out: perc_inhibition_mean, batch_name=ASAP-0000043-001): 1.92% |
| NC(=O)c1ccccc1NC(=O)c1ncnc2[nH]ccc12 [ASAP-0000044] | -2.586 | inhibition at 50 µM (SARS-CoV-2 nsp3-mac1 [2]; read-out: perc_inhibition_mean, batch_name=ASAP-0000044-001): -2.59% |
| OC[C@@H]1CN(c2ncnc3nc[nH]c23)CCC1(F)F [ASAP-0000045] | 1.75 | inhibition at 50 µM (SARS-CoV-2 nsp3-mac1 [2]; read-out: perc_inhibition_mean, batch_name=ASAP-0000045-001): 1.75% |
| Cc1nc(Nc2cnn(CCO)c2)c2cc[nH]c2n1 [ASAP-0000046] | -6.147 | inhibition at 50 µM (SARS-CoV-2 nsp3-mac1 [2]; read-out: perc_inhibition_mean, batch_name=ASAP-0000046-001): -6.15% |
| OCc1cn([C@@H]2CCCN(c3ncnc4[nH]ccc34)C2)nn1 [ASAP-0000047] | -0.682 | inhibition at 50 µM (SARS-CoV-2 nsp3-mac1 [2]; read-out: perc_inhibition_mean, batch_name=ASAP-0000047-001): -0.682% |
| C=CCn1c(Cc2ccccc2)nnc1Sc1ncnc2[nH]ccc12 [ASAP-0000048] | -7.711 | inhibition at 50 µM (SARS-CoV-2 nsp3-mac1 [2]; read-out: perc_inhibition_mean, batch_name=ASAP-0000048-001): -7.71% |
| Fc1ccc(F)c(Sc2ncnc3[nH]ccc23)c1 [ASAP-0000049] | -1.149 | inhibition at 50 µM (SARS-CoV-2 nsp3-mac1 [2]; read-out: perc_inhibition_mean, batch_name=ASAP-0000049-001): -1.15% |
| Cc1ccnc(C2CCN(c3ncnc4[nH]ccc34)CC2)n1 [ASAP-0000050] | 3.465 | inhibition at 50 µM (SARS-CoV-2 nsp3-mac1 [2]; read-out: perc_inhibition_mean, batch_name=ASAP-0000050-001): 3.46% |
| O=S1(=O)CCC[C@@H](CNc2ncnc3n[nH]cc23)C1 [ASAP-0000051] | 4.593 | inhibition at 50 µM (SARS-CoV-2 nsp3-mac1 [2]; read-out: perc_inhibition_mean, batch_name=ASAP-0000051-001): 4.59% |
| Cc1cccc(C)c1-n1nnnc1CSc1ncnc2[nH]cnc12 [ASAP-0000052] | 6.631 | inhibition at 50 µM (SARS-CoV-2 nsp3-mac1 [2]; read-out: perc_inhibition_mean, batch_name=ASAP-0000052-001): 6.63% |
